This experiment addresses T1, ANP receptor (Sus scrofa, UniProt F1SFW3).
T1 construct: ANP receptor-expressing LLC-PK1 cells; endogenous in cells; host or cells: LLC-PK1 cells
T1 sequence (F1SFW3 29-1057): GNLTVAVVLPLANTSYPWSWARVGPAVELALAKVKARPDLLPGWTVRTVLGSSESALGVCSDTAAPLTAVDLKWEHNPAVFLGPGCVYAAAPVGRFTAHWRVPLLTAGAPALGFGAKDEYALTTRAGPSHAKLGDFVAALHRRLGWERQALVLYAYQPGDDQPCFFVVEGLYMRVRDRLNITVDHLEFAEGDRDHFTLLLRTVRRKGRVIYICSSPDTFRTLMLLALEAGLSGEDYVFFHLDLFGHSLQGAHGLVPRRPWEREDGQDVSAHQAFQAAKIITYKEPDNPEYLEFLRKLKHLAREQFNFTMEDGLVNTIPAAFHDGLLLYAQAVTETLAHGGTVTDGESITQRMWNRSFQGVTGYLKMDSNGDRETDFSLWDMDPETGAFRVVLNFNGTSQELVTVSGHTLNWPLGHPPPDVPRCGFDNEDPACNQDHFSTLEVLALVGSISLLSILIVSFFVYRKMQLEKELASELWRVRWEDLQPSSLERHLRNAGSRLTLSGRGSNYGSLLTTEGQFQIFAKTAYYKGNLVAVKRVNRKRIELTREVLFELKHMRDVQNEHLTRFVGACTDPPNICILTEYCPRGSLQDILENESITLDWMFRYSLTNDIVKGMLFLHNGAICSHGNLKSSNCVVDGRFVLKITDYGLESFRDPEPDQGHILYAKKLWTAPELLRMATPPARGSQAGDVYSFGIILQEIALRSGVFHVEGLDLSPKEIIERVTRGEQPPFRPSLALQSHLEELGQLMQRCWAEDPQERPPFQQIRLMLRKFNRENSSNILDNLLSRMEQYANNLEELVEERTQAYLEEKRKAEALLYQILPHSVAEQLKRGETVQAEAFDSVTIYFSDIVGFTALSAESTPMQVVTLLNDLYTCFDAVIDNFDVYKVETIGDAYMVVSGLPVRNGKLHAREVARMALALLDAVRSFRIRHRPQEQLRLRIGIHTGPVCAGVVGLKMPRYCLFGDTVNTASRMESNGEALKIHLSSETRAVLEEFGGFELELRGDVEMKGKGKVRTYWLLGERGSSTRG
As to the kind of experiment: cGMP production in ANP receptor-expressing LLC-PK1 cells. It is filed as cell-based. Conditions: 30 min stimulation, 10^-6M through 10^-12M. As for the experimental part:
The bifunctional hormone was tested on ANP receptor-expressing LLC-PK1 cells and on MCR1 receptor-expressing B16-F1 cells. Both cell types were cultured 24 hours before the stimulation, in 96-well plates, at a concentration of 1.0×10^5 cells/ml. Before stimulation, cells were starved 2 hours in DPBS only and incubated 10 min in assay buffer (DPBS containing 20 mM HEPES, 0.1% BSA and 500 μM IBMX). The dose response curve of the bifunctional hormone was done for 30 minutes with concentrations of 10^−6M through 10^−12M. Supernatant was collected and cAMP (B16-F1) or cGMP (LLC-PK1) was measured with a radiolabeled kit from GE Healthcare Company.

pEC50: −log10 of the molar value. Bridge positions count the residues as written; N and C are the ends. Square brackets hold non-standard residues; d marks the D form. Peptide text beside a SMILES is read from it. Nle = CCCC[C@H](N)C(=O)O

A word on the pEC50: it is the EC50 on a negative log10 scale, so that one unit is a factor of ten. With `CC[C@H](C)[C@@H]1NC(=O)[C@H](CCCNC(=N)N)NC(=O)[C@H](CC(=O)O)NC(=O)[C@H](CCSC)NC(=O)[C@H](CCCNC(=N)N)NC(=O)CNC(=O)CNC(=O)[C@H](Cc2ccccc2)NC(=O)[C@@H](NC(=O)[C@H](CO)NC(=O)[C@H](CO)NC(=O)[C@H](CCCNC(=N)N)NC(=O)[C@H](CCCNC(=N)N)NC(=O)CNC(=O)[C@H](Cc2c[nH]c3ccccc23)NC(=O)[C@H](CCCNC(=N)N)NC(=O)[C@H](Cc2ccccc2)NC(=O)[C@H](Cc2c[nH]cn2)NC(=O)[C@H](CCC(=O)O)NC(C)=O)CSSC[C@@H](C(=O)N[C@@H](CC(N)=O)C(=O)N[C@@H](CO)C(=O)N[C@@H](Cc2ccccc2)C(=O)N[C@@H](CCCNC(=N)N)C(=O)N[C@@H](Cc2ccc(O)cc2)C(N)=O)NC(=O)CNC(=O)[C@H](CC(C)C)NC(=O)CNC(=O)[C@H](CO)NC(=O)[C@H](CCC(N)=O)NC(=O)[C@H](C)NC(=O)CNC1=O` [SEQ ID NO: 41, Ac-E-H-F-R-W-G-R-R-S-S-[C-F-G-G-R-M-D-R-I-G-A-Q-S-G-L-G-C]-N-S-F-R-Y-NH2] (Ac-EHFRWGRRSSCFGGRMDRIGAQSGLGCNSFRY-NH2; disulfide 11-27), where the note is “NR = No response detected”, the pEC50 is 8.05. The compound `CCCC[C@@H]1NC(=O)[C@H](CCCNC(=N)N)NC(=O)CNC(=O)CNC(=O)[C@H](Cc2ccccc2)NC(=O)[C@@H](NC(=O)[C@H](CCCC)NC(=O)[C@@H]2CCCN2C(=O)[C@H](CCCCN)NC(=O)CNC(=O)[C@H](Cc2c[nH]c3ccccc23)NC(=O)[C@H](CCCNC(=N)N)NC(=O)[C@@H](Cc2ccccc2)NC(=O)[C@H](Cc2c[nH]cn2)NC(C)=O)CSSC[C@@H](C(=O)N[C@@H](CC(N)=O)C(=O)N[C@@H](CO)C(=O)N[C@@H](Cc2ccccc2)C(=O)N[C@@H](CCCNC(=N)N)C(=O)N[C@@H](Cc2ccc(O)cc2)C(N)=O)NC(=O)CNC(=O)[C@H](CC(C)C)NC(=O)CNC(=O)[C@H](CO)NC(=O)[C@H](CCC(N)=O)NC(=O)[C@H](C)NC(=O)CNC(=O)[C@H]([C@@H](C)CC)NC(=O)[C@H](CCCNC(=N)N)NC(=O)[C@H](CC(=O)O)NC1=O` [SEQ ID NO: 35, Ac-H-f-R-W-G-K-P-Nle-[C-F-G-G-R-Nle-D-R-I-G-A-Q-S-G-L-G-C]-N-S-F-R-Y-NH2] (Ac-H[dF]RWGKP[Nle]CFGGR[Nle]DRIGAQSGLGCNSFRY-NH2; disulfide 9-25) had a pEC50 (NR = No response detected) of 6.66.

The compound `CCCC[C@@H]1NC(=O)[C@H](CCCNC(=N)N)NC(=O)CNC(=O)CNC(=O)[C@H](Cc2ccccc2)NC(=O)[C@H](Cc2c[nH]cn2)NC(=O)[C@@H](NC(=O)[C@@H](N)CCCC)CCC(=O)NCCCC[C@@H](C(=O)N[C@@H](Cc2ccc(O)cc2)C(=O)N[C@@H](CCCNC(=N)N)C(=O)N[C@@H](Cc2c[nH]cn2)C(=O)N[C@H](Cc2ccccc2)C(=O)N[C@@H](CCCNC(=N)N)C(=O)N[C@@H](Cc2c[nH]c3ccccc23)C(N)=O)NC(=O)[C@H](CO)NC(=O)[C@H]([C@@H](C)CC)NC(=O)[C@H](CCCNC(=N)N)NC(=O)[C@H](CC(=O)O)NC1=O` [SEQ ID NO: 29, Nle-[E-H-F-G-G-R-Nle-D-R-I-S-K]-Y-R-H-f-R-W-NH2] (H-[Nle]EHFGGR[Nle]DRISKYRH[dF]RW-NH2; lactam 2-13) gave a pEC50 of 5.84.

These data come from patent publication US8822413B2, “Bifunctional hormone having alpha-MSH activity and natriuretic peptide activity and uses thereof” (Theratechnologies Inc., priority 2007, dated 2014).
